Test results from ChEMBL document CHEMBL3865829 (Eur J Med Chem, 2016).
pIC50: −log10 of the molar value.

How the values were obtained:
[1] = Cytotoxicity against human A549 cells after 72 hrs by MTT assay; type: functional, cell-based; conditions: A549, 72 h
[2] = Cytotoxicity against human U87MG cells after 72 hrs by MTT assay; type: functional, cell-based, U-87MG ATCC; conditions: U-87 MG
[3] = molecular target: Phosphatidylinositol 4,5-bisphosphate 3-kinase catalytic subunit alpha isoform (Homo sapiens, UniProt P42336); experiment: Inhibition of PI3Kalpha (unknown origin) using PIP2 as substrate after 1 hr in presence of ATP by kinase-glo luminescence assay
[4] = Cytotoxicity against human NCI60 cells after 48 hrs by SRB assay; type: functional; conditions: NCI60, 48 h
cells = conditions: Homo sapiens, HCT-116, 72 h
HCT-116 = experiment: Potency index, ratio of GSK2126458 IC50 to compound IC50 for human HCT116 cells; type: functional
[5] = Cytotoxicity against human MDA-MB-231 cells after 72 hrs by MTT assay; type: functional, cell-based; conditions: MDA-MB-231, 72 h
[6] = Cytotoxicity against human HepG2 cells after 72 hrs by MTT assay; type: functional, cell-based; conditions: HepG2, 72 h

Phosphatidylinositol 4,5-bisphosphate 3-kinase catalytic subunit alpha isoform, sequence (P42336 whole entry, canonical isoform): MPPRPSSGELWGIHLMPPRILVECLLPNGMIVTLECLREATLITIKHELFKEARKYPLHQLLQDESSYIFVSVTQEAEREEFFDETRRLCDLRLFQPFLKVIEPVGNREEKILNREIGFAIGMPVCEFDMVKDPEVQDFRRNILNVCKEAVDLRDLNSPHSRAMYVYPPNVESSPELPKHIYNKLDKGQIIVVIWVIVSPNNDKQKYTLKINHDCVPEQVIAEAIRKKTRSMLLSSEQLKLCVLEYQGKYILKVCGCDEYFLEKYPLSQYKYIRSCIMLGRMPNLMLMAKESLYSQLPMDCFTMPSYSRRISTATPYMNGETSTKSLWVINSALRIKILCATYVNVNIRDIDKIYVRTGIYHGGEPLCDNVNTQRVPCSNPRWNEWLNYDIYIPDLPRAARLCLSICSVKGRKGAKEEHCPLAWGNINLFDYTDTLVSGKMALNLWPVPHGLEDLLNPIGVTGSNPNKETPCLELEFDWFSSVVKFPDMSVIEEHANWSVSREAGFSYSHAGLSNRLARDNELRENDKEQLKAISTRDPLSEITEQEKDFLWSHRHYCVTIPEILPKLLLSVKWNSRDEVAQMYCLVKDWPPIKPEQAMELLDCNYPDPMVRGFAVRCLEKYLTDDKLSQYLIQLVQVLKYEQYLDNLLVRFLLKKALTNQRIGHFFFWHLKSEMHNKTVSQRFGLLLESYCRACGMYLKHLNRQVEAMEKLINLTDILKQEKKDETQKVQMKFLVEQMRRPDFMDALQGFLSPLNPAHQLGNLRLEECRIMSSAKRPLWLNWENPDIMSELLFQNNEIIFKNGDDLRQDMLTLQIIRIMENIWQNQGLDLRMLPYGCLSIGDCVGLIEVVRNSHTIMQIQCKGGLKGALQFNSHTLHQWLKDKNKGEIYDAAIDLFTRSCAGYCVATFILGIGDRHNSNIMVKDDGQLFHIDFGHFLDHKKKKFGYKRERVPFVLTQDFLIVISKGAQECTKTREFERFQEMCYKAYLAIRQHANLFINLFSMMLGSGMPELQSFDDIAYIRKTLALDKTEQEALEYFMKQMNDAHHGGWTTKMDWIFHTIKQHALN

Compound	pIC50 [1]	pIC50 [2]	pIC50 [3]	GI50 [4]	pIC50 (cells)	Ratio IC50 (HCT-116)	pIC50 [5]	pIC50 [6]
COc1ncc(-c2ccc3nccc(-c4ccc(CN(C)CCN(C)C)cc4)c3c2)cc1NS(=O)(=O)c1ccc(F)cc1F	7.89	6.60	8.60					
COc1ncc(-c2ccc3nccc(-c4ccc(CN5CCOCC5)cc4)c3c2)cc1NS(=O)(=O)c1ccc(F)cc1F	7.15		8.96					
CC(=O)O[C@H]1C(=O)[C@@]2(C)[C@H]([C@H](OC(=O)c3ccccc3)[C@]3(O)C[C@H](OC(=O)[C@H](O)[C@@H](NC(=O)c4ccccc4)c4ccccc4)C(C)=C1C3(C)C)[C@]1(OC(C)=O)CO[C@@H]1C[C@@H]2O [PACLITAXEL]				31.5 nM				
CC[C@@]1(O)C(=O)OCc2c1cc1n(c2=O)Cc2cc3ccccc3nc2-1 [CAMPTOTHECIN]				39.8 nM				
COc1ncc(-c2ccc3nccc(-c4ccc(Cn5cncn5)cc4)c3c2)cc1NS(=O)(=O)c1ccc(F)cc1F	7.80				8.06	18		
COc1ncc(-c2ccc3nccc(-c4ccc(CN(C)CCO)cc4)c3c2)cc1NS(=O)(=O)c1ccc(F)cc1F	7.70				8.33	>30		
COc1ncc(-c2ccc3nccc(-c4ccc(CN(C)CCO)cc4)c3c2)cc1NS(=O)(=O)c1ccc(F)cc1	7.66				7.60		6.68	5.73
O=S(=O)(Nc1cc(-c2ccc3nccc(-c4ccc(Cn5cncn5)cc4)c3c2)cnc1Cl)c1ccc(F)cc1F	6.19				7.44		6.47	5.69
COc1ncc(-c2ccc3nccc(-c4ccc(Cn5cncn5)cc4)c3c2)cc1NS(=O)(=O)c1ccc(F)cc1	7.48				7.59		6.55	4.90
O=S(=O)(Nc1cc(-c2ccc3nccc(-c4ccc(CN5CCOCC5)cc4)c3c2)cnc1Cl)c1ccc(F)cc1F	7.62				7.29		5.62	5.64
